Patent US20230286946A1, “DIFLUOROMETHYL-PYRIDIN-2-YL TRIAZOLES” (Boehringer Ingelheim International GmbH, priority 2020, published 2023)

Each compound was assayed against T1, human GABAA α5β3γ2s receptor (Homo sapiens, UniProt P18507+P31644) (assay: Assay A: in vitro inhibition of 3H-flumazenil binding, HEK cells expressing the human GABAA α5β3γ2s receptor). Settings: compounds of the present invention; read-out: Assay A: GABAA α5 β3 γ2S Ki.
T1 sequence (P18507 1-475): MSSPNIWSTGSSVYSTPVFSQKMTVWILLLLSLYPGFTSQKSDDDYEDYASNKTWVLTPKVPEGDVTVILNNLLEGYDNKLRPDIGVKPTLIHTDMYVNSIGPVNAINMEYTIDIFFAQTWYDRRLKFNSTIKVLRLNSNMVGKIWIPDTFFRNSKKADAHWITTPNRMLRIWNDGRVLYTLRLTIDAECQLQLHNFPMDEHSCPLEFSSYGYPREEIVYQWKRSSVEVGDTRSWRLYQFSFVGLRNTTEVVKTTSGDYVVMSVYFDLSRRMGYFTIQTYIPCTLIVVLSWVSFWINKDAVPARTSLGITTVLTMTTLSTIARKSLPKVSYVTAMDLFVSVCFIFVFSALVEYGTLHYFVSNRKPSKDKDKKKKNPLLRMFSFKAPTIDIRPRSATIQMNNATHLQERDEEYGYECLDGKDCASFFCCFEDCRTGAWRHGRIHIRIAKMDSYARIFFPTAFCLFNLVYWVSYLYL
T1 sequence (P31644 1-462): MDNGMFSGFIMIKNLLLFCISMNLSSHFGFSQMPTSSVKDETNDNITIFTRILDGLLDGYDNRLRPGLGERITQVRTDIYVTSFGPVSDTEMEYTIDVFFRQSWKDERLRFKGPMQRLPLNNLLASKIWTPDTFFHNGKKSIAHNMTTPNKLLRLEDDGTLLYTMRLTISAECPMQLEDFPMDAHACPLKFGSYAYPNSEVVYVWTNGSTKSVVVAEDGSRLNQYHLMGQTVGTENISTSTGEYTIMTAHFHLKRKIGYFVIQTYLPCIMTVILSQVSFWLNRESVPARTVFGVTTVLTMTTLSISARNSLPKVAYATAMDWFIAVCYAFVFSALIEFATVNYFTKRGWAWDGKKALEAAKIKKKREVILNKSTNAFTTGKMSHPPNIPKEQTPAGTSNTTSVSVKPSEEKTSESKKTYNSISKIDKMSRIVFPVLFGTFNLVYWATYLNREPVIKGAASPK
Method: Cell Cultures and Membrane Preparation
HEK-293 cell lines with stable expression of recombinant human GABAA α5ß3 γ2s receptors (plasmid H46/E9/B10) are seeded in T175 polystyrene flasks or roller bottles (1700 cm^2, Fisher Scientific CCI-431191), and cultured (37° C., 5% CO2) in Dulbecco's Modified Eagle Medium (DMEM) with GlutaMAX™ supplemented with 10% fetal bovine serum and one or both of the following antibiotics: hygromycin B ([…]; γ2 subunit) or G418 (0.5 mg/ml; […]).
When the cultures reach confluency, the DMEM is removed and the cells are washed (10 ml for T175 flasks; 50 ml for roller bottles) once in Dulbecco's Phosphate Buffered Saline (DPBS). Following addition of DPBS to the cultures (10 ml for T175 flasks; 100 ml for roller bottles) for approximately 5 min cells are easily detached from the surface by shaking or tapping the flask gently. The cell suspension is transferred to Falcon tubes and centrifuged at 23,500×g for 10 min at 2° C. The pellet is washed once in 15 ml Tris-citrate buffer (50 mM, pH 7.1) using an Ultra-Turrax homogenizer and centrifuged at 2° C. for 10 min at 27,000×g. The washed pellet is re-suspended in 15 ml Tris-citrate buffer and frozen at −80° C. until the day of the binding experiment.
On the day of the experiment the cell membrane preparation is thawed and centrifuged at 2° C. for 10 min at 27,000×g. The pellet is re-suspended, using an Ultra-Turrax homogenizer in Tris-citrate buffer, to 15-50 µg protein per assay and then used for binding assays.
Non-specific binding is determined using clonazepam ([…]).
All dilutions of test compounds and incubation of assay are performed in glass vials/96-vial plates. […] Compounds are dissolved in 100% DMSO (10 mM stock), diluted in 48% ethanol-water, and tested in triplicate in serial 1:3 or 1:10 dilutions. When screening large numbers of compounds only one concentration of each compound is tested in single wells. Reference compounds are not included routinely, but for each experiment performed total and nonspecific binding is compared to data obtained during validation of the assay.
Binding is either terminated by rapid filtration onto
1) Whatman GF/C glass fibre filters using a Brandel Cell harvester, followed by 5 washes with 1 ml ice-cold buffer or onto 2) UniFilter GF/C glass fibre filter plates using a Tomtec cell harvester, followed by washing with approximately 5 ml ice-cold buffer.
The amount of radioactivity on the filters is determined by conventional liquid scintillation counting using a
1) Tri-Garb™ counter (PerkinElmer Life and Analytical Sciences) for separate large filters or
2) Topcount™ counter (PerkinElmer Life and Analytical Sciences) for 96-well filter plates.
Specific binding is total binding minus non-specific binding.
The IC50 value for a test compound is determined based on the equation: […]
where B is the binding in percentage of total specific binding; C is the concentration of test compound; and n is the Hill coefficient. For screening purposes n is set to 1. The IC50 value is calculated from the concentration response curves by the non-linear regression method using the curve-fitting program GraphPad Prism.
The Ki value for a test compound can be calculated from the IC50 value using the equation by Cheng and Prusoff: […]

Row | Compound | Ki [nM]
1 | Cc1nnn(-c2ccc(C(F)F)cn2)c1COc1ccc(-c2cnccn2)nn1 [Example 56, 3-({1-[5-(difluoromethyl)pyridin-2-yl]-4-methyl-1H-1,2,3-triazol-5-yl}methoxy)-6-(pyrazin-2-yl)pyridazine] | 0.01
2 | Cc1nnn(-c2ccc(C(F)F)cn2)c1COc1ccc(-n2cnc(C#N)c2)nn1 [Example 42, 1-[6-({1-[5-(difluoromethyl)pyridin-2-yl]-4-methyl-1H-1,2,3-triazol-5-yl}methoxy)pyridazin-3-yl]-1H-imidazole-4-carbonitrile] | 0.014
3 | Cc1nnn(-c2ccc(C(F)F)cn2)c1COc1ccc(-c2cc[nH]n2)nn1 [Example 5] | 16

Same assay, conditions: read-out: Assay A: GABAA α 5 β 3 γ 2s Ki

Row | Compound | Ki [nM]
4 | Cc1ncnn1-c1ccc(OCc2c(-c3ccc(C(F)F)cn3)nnn2C)nn1 [Example 48, 3-({4-[5-(difluoromethyl)pyridin-2-yl]-1-methyl-1H-1,2,3-triazol-5-yl}methoxy)-6-(5-methyl-1H-1,2,4-triazol-1-yl)pyridazine] | 82
5 | Cc1ncc(-c2ccc(OCc3c(C)nnn3-c3ccc(C(F)F)cn3)nn2)o1 [Example 18] | 14
6 | Cc1nnn(-c2ccc(C(F)F)cn2)c1COc1ccc(-c2c[nH]c(=O)c(F)c2)nn1 [Example 20] | 16
7 | Cn1nnc(-c2ccc(C(F)F)cn2)c1COc1ccc(-c2cccc(C(N)=O)c2)nn1 [Example 28] | 24
8 | CCn1cc(-c2ccc(OCc3c(-c4ccc(C(F)F)cn4)nnn3C)nn2)cn1 [Example 22] | 19
9 | Cc1nnn(-c2ccc(C(F)F)cn2)c1COc1ccc(-n2nccn2)nn1 [Example 43] | 28
10 | Cn1nnc(-c2ccc(C(F)F)cn2)c1COc1ccc(-n2cccn2)nn1 [Example 50] | 22
11 | Cn1nnc(-c2ccc(C(F)F)cn2)c1COc1ccc(-c2cnc3nonc3c2)nn1 [Example 35] | 49
12 | Cc1c(-c2ccc(OCc3c(-c4ccc(C(F)F)cn4)nnn3C)nn2)cnn1C [Example 33] | 24
13 | Cc1nn(C)cc1-c1ccc(OCc2c(-c3ccc(C(F)F)cn3)nnn2C)nn1 [Example 30] | 24
14 | Cc1nnn(-c2ccc(C(F)F)cn2)c1COc1ccc(-n2cc(C#N)cn2)nn1 [Example 37] | 11
15 | Cc1nnn(-c2ccc(C(F)F)cn2)c1COc1ccc(-n2ncnc2C)nn1 [Example 38] | 12
16 | Cn1nnc(-c2ccc(C(F)F)cn2)c1COc1ccc(-c2ccc(S(C)(=O)=O)nc2)nn1 [Example 23] | 49
17 | Cc1n[nH]c(C)c1-c1ccc(OCc2c(C)nnn2-c2ccc(C(F)F)cn2)nn1 [Example 15] | 40
18 | Cn1nnc(-c2ccc(C(F)F)cn2)c1COc1ccc(-c2ccc(N)nc2)nn1 [Example 25] | 23
19 | COc1ncc(-c2ccc(OCc3c(-c4ccc(C(F)F)cn4)nnn3C)nn2)cn1 [Example 31] | 23
20 | Cn1nnc(-c2ccc(C(F)F)cn2)c1COc1ccc(-n2ccc(C#N)n2)nn1 [Example 53] | 19
21 | Cc1nnn(-c2ccc(C(F)F)cn2)c1COc1ccc(-c2ccc(C#N)nc2)nn1 [Example 8] | 18
22 | Cc1nnn(-c2ccc(C(F)F)cn2)c1COc1ccc(-c2cnccn2)nn1 [Example 56, 3-({1-[5-(difluoromethyl)pyridin-2-yl]-4-methyl-1H-1,2,3-triazol-5-yl}methoxy)-6-(pyrazin-2-yl)pyridazine] | 10

Row | Compound | Ki [nM]
23 | Cn1nnc(-c2ccc(C(F)F)cn2)c1COc1ccc(-c2cn[nH]c2)nn1 [Example 24] | 32
24 | Cc1cc(-c2ccc(OCc3c(C)nnn3-c3ccc(C(F)F)cn3)nn2)cnn1 [Example 3] | 13
25 | Cc1c(-c2ccc(OCc3c(-c4ccc(C(F)F)cn4)nnn3C)nn2)cc(C#N)n1C [Example 29] | 19
26 | Cc1nnn(-c2ccc(C(F)F)cn2)c1COc1ccc(-c2ccc(S(C)(=O)=O)nc2)nn1 [Example 16] | 21
27 | Cn1nnc(-c2ccc(C(F)F)cn2)c1COc1ccc(-c2cnccn2)nn1 [Example 39] | 39
28 | Cn1nnc(-c2ccc(C(F)F)cn2)c1COc1ccc(-n2cnc(C#N)c2)nn1 [Example 52] | 35
29 | Cc1nnn(-c2ccc(C(F)F)cn2)c1COc1ccc(-c2cnc(N)nc2)nn1 [Example 2] | 15
30 | Cc1nnn(-c2ccc(C(F)F)cn2)c1COc1ccc(-n2cnc(C#N)c2)nn1 [Example 42, 1-[6-({1-[5-(difluoromethyl)pyridin-2-yl]-4-methyl-1H-1,2,3-triazol-5-yl}methoxy)pyridazin-3-yl]-1H-imidazole-4-carbonitrile] | 14
31 | Cc1nnn(-c2ccc(C(F)F)cn2)c1COc1ccc(-c2cc[nH]n2)nn1 [Example 5] | 16
32 | Cn1nnc(-c2ccc(C(F)F)cn2)c1COc1ccc(-c2cnn(C3CCC3)c2)nn1 [Example 32] | 18
33 | CNc1cccc(-c2ccc(OCc3c(C)nnn3-c3ccc(C(F)F)cn3)nn2)n1 [Example 14] | 33
34 | Cc1nnn(-c2ccc(C(F)F)cn2)c1COc1ccc(-c2ccc(C#N)s2)nn1 [Example 12] | 19
35 | Cc1nnn(-c2ccc(C(F)F)cn2)c1COc1ccc(-c2ccc(N)nc2)nn1 [Example 19] | 17
36 | Cc1nnn(-c2ccc(C(F)F)cn2)c1COc1ccc(-c2ccc(=O)n(C)c2)nn1 [Example 1, 5-[6-({1-[5-(difluoromethyl)pyridin-2-yl]-4-methyl-1H-1,2,3-triazol-5-yl}methoxy)pyridazin-3-yl]-1-methyl-1,2-dihydropyridin-2-one] | 10
37 | Cc1nnn(-c2ccc(C(F)F)cn2)c1COc1ccc(-c2ccnnc2)nn1 [Example 17] | 16
38 | Cn1nnc(-c2ccc(C(F)F)cn2)c1COc1ccc(-n2cc(C#N)cn2)nn1 [Example 49] | 25
39 | Cc1nnn(-c2ccc(C(F)F)cn2)c1COc1ccc(-c2cnn(CC#N)c2)nn1 [Example 7] | 26
40 | Cc1nnn(-c2ccc(C(F)F)cn2)c1COc1ccc(-c2cccc(C(N)=O)c2)nn1 [Example 6] | 15
41 | Cc1nnn(-c2ccc(C(F)F)cn2)c1COc1ccc(-c2cn[nH]c2)nn1 [Example 4] | 17
